Laboratory results: patent US4195171A, “Derivatives of an antibiotic XK-62-2 and process for the production thereof” (Abbott Laboratories, priority 1975, dated 1980)
Where two headings read alike, the source gives them in different places.

Key:
Assay in all cases: Antibacterial spectrum, MIC by agar dilution method
Type in all cases: cell-based
[1] = test system: Pseudomonas aeruginosa KY Z-444
Excerpt: (§1) XK-62-2, 1-N-[L-(-)-α-hydroxy-γ-aminobutyryl] XK-62-2, Compounds (I-1), (I-2), (II-1) and (II-2) against various Gram-negative and Gram-positive bacteria determined by agar dilution method at pH 7.2.
(§2) ^8 produces 6N-acetyltransferase Type III

[2] = test system: Pseudomonas aeruginosa Z-445; details: Z445, pH 7.2, strain produces 6N-acetyltransferase Type III, read-out: Minimum Inhibitory Concentration
Excerpt: as §1, §2

[3] = test system: Serratia marcescens POE 1065
Excerpt: as §1
(§3) ^1 produces kanamycin acetyltransferase

[4] = test system: Escherichia coli KY Z-343; details: KYZ343, pH 7.2, strain produces kanamycin acetyltransferase, read-out: Minimum Inhibitory Concentration
Excerpt: as §1, §3

[5] = test system: Staphylococcus aureus 209 P; details: pH 7.2, read-out: Minimum Inhibitory Concentration
Excerpt: as §1

[6] = test system: Pseudomonas aeruginosa E-2
Excerpt: as §1

[7] = test system: Pseudomonas aeruginosa NC-5
Excerpt: as §1

[8] = test system: bacillus subtilis ATCC 6633; details: ATCC6633, pH 7.2, read-out: Minimum Inhibitory Concentration
Excerpt: as §1

[9] = test system: Pseudomonas aeruginosa BMH 1; details: BMH1, pH 7.2, read-out: Minimum Inhibitory Concentration
Excerpt: as §1

[10] = test system: Shigella sonnei ATCC 9290; details: ATCC9290, pH 7.2, read-out: Minimum Inhibitory Concentration
Excerpt: as §1

[11] = test system: Serratia sp T-55
Excerpt: as §1

[12] = test system: Proteus mirabilis 1287; details: pH 7.2, read-out: Minimum Inhibitory Concentration
Excerpt: as §1

[13] = test system: Streptococcus faecalis ATCC 10541; details: Enterococcus faecalis, ATCC10541, pH 7.2, read-out: Minimum Inhibitory Concentration
Excerpt: as §1

[14] = test system: Sarcina lutea ATCC 9341; details: Micrococcus luteus, ATCC9341, pH 7.2, read-out: Minimum Inhibitory Concentration
Excerpt: as §1

[15] = test system: Klebsiella pneumoniae No. 8045; details: pH 7.2, read-out: Minimum Inhibitory Concentration
Excerpt: as §1

[16] = test system: Escherichia coli Juhl; details: pH 7.2, read-out: Minimum Inhibitory Concentration
Excerpt: as §1

[17] = test system: Escherichia coli T-2; details: T2, pH 7.2, read-out: Minimum Inhibitory Concentration
Excerpt: as §1

[18] = test system: Pseudomonas aeruginosa No. 12; details: pH 7.2, read-out: Minimum Inhibitory Concentration
Excerpt: as §1

[19] = test system: Proteus morganii KY 4298; details: Morganella morganii
Excerpt: as §1

[20] = test system: Salmonella typhimurium E-9; details: Salmonella enterica, pH 7.2, read-out: Minimum Inhibitory Concentration
Excerpt: as §1

[21] = test system: Proteus vulgaris 6897; details: pH 7.2, read-out: Minimum Inhibitory Concentration
Excerpt: as §1

[22] = test system: Staphylococcus aureus Smith; details: pH 7.2, read-out: Minimum Inhibitory Concentration
Excerpt: as §1

[23] = test system: Proteus rettgeri KY 4288; details: Providencia rettgeri, KY4288, pH 7.2, read-out: Minimum Inhibitory Concentration
Excerpt: as §1

[24] = test system: Salmonella enteritidis G-14; details: Salmonella enterica, pH 7.2, read-out: Minimum Inhibitory Concentration
Excerpt: as §1

[25] = test system: Pseudomonas aeruginosa BMH 10; details: BMH10, pH 7.2, read-out: Minimum Inhibitory Concentration
Excerpt: as §1

[26] = test system: Escherichia coli T-5
Excerpt: as §1

[27] = test system: Providencia sp. 164; details: pH 7.2, strain produces gentamicin acetyltransferase Type II, read-out: Minimum Inhibitory Concentration
Excerpt: as §1
^9 produces gentamicin acetyltransferase Type II

[28] = test system: Escherichia coli KY 8320; details: KY8320, pH 7.2, strain produces neomycinkanamycin phosphotransferase Type I, read-out: Minimum Inhibitory Concentration
Excerpt: as §1
(§4) ^3 produces neomycinkanamycin phosphotransferase Type I

[29] = test system: Pseudomonas aeruginosa KY 8518; details: KY8518, pH 7.2, strain produces neomycinkanamycin phosphotransferase Type I, read-out: Minimum Inhibitory Concentration
Excerpt: as §1, §4

[30] = test system: Escherichia coli KY 8349; details: KY8349, pH 7.2, strain produces neomycinkanamycin phosphotransferase Type I, read-out: Minimum Inhibitory Concentration
Excerpt: as §1, §4

[31] = test system: Pseudomonas aeruginosa KY 8511; details: KY8511, pH 7.2, strain produces gentamicin acetyltransferase Type I, read-out: Minimum Inhibitory Concentration
Excerpt: as §1
(§5) ^2 produces gentamicin acetyltransferase Type I

[32] = test system: Escherichia coli KY 8348; details: KY8348, pH 7.2, strain produces gentamicin acetyltransferase Type I, read-out: Minimum Inhibitory Concentration
Excerpt: as §1, §5

[33] = test system: Escherichia coli KY 8321; details: KY8321, pH 7.2, strain produces gentamicin adenyltransferase and neomycinkanamycin phosphotransferase Type II, read-out: Minimum Inhibitory Concentration
Excerpt: as §1
^5 produces gentamicin adenyltransferase and neomycinkanamycin
phosphotransferase Type II

[34] = KYZ444, agar dilution, pH 7.2, strain produces 6N-acetyltransferase Type III, read-out: Minimum Inhibitory Concentration
[35] = POE1065, agar dilution, pH 7.2, strain produces kanamycin acetyltransferase, read-out: Minimum Inhibitory Concentration
[36] = E2, agar dilution, pH 7.2, read-out: Minimum Inhibitory Concentration
[37] = NC5, agar dilution, pH 7.2, read-out: Minimum Inhibitory Concentration
[38] = T55, agar dilution, pH 7.2, read-out: Minimum Inhibitory Concentration
[39] = KY4298, agar dilution, pH 7.2, read-out: Minimum Inhibitory Concentration
[40] = T5, agar dilution, pH 7.2, read-out: Minimum Inhibitory Concentration
[41] = E2, pH 7.2, read-out: Minimum Inhibitory Concentration
[42] = NC5, pH 7.2, read-out: Minimum Inhibitory Concentration
[43] = POE1065, pH 7.2, read-out: Minimum Inhibitory Concentration

Measured: MIC

CNCC1CCC(N)C(OC2C(N)CC(NC(=O)C(O)CCN)C(OC3OCC(C)(O)C(NC)C3O)C2O)O1 (single isomer, unassigned) [1-N-[L-(-)-α-hydroxy-γ-aminobutyryl] XK-62-2, reference compound]
1.56 µg/mL: [1]; [34] | [21] | [29] | [31]
3.12 µg/mL: [6]; [36] | [7]; [37] | [24]; agar dilution
0.4 µg/mL: [5] | [16]; agar dilution | [17] | [18] | [25] | [26]; [40]
6.25 µg/mL: [2] | [13] | [27]
0.2 µg/mL: [14] | [15] | [20] | [28] | [33]
0.78 µg/mL: [3]; [35] | [9] | [10] | [11]; [38] | [19]; [39] | [23]
0.1 µg/mL: [4] | [8] | [22] | [30] | [32]
12.5 µg/mL: [12]

CC1(O)COC(OC2C(NC(=O)C(O)CCN)CC(N)C(OC3OC(CN)CCC3N)C2O)C(O)C1N (single isomer, unassigned) [Compound I-2, 3"-N, 6'-N-didemethyl-1-N-[L-(-)-α-hydroxy-γ-aminobutyryl] XK-62-2]
0.4 µg/mL: [18] | [20] | [25] | [30] | [32]
3.12 µg/mL: [11]; [38] | [21]
0.2 µg/mL: [4] | [5] | [22]
0.1 µg/mL: [8]
0.78 µg/mL: [9] | [14] | [15] | [17] | [19]; [39] | [23] | [28] | [29] | [31] | [33]
12.5 µg/mL: [12] | [13] | [24]; agar dilution
1.56 µg/mL: [1]; KYZ444, pH 7.2, read-out: Minimum Inhibitory Concentration | [6]; [41] | [7]; [42] | [10] | [16] | [26]; T5, pH 7.2, read-out: Minimum Inhibitory Concentration
25 µg/mL: [3]; [35]
6.25 µg/mL: [2] | [27]

CC1(O)COC(OC2C(NC(=O)C(O)CN)CC(N)C(OC3OC(CN)CCC3N)C2O)C(O)C1N (racemic) [Compound I-1, 3"-N, 6'-N-didemethyl-1-N-(DL-α-hydroxy-β-aminopropionyl) XK-62-2]
0.1 µg/mL: [8]
12.5 µg/mL: [12] | [13]
1.56 µg/mL: [1]; [34] | [6]; [36] | [16]; agar dilution | [17] | [19]; [39] | [26]; [40] | [33]
3.12 µg/mL: [10] | [11]; T55, pH 7.2, read-out: Minimum Inhibitory Concentration
6.25 µg/mL: [2] | [21] | [24]; agar dilution | [27]
0.4 µg/mL: [4] | [15] | [18] | [25] | [30] | [32]
0.78 µg/mL: [7]; [37] | [9] | [14] | [20] | [23] | [28] | [29] | [31]
0.2 µg/mL: [5] | [22]
50 µg/mL: [3]; [35]

CNCC1CCC(N)C(OC2C(N)CC(NC(=O)C(O)CCN)C(OC3OCC(C)(O)C(N)C3O)C2O)O1 (single isomer, unassigned) [II-2, 3"-N-demethyl-1-N-[L-(-)-α-hydroxy-γ-aminobutyryl] XK-62-2]
0.2 µg/mL: [4] | [8]
25 µg/mL: [13]
0.4 µg/mL: [5] | [22] | [25] | [26]; [40] | [30] | [32]
12.5 µg/mL: [12] | [27]
1.56 µg/mL: [1]; [34] | [9] | [11]; [38] | [14] | [16]; agar dilution | [19]; [39] | [29] | [31]
6.25 µg/mL: [2] | [21]
0.78 µg/mL: [15] | [17] | [18] | [20] | [23] | [28] | [33]
3.12 µg/mL: [3]; [43] | [6]; [41] | [7]; [42] | [10] | [24]

CNCC1CCC(N)C(OC2C(N)CC(NC(=O)C(O)CN)C(OC3OCC(C)(O)C(N)C3O)C2O)O1 (racemic) [II-1, 3"-N-demethyl-1-N-(DL-α-hydroxy-β-aminopropionyl) XK-62-2]
0.2 µg/mL: [8]
3.12 µg/mL: [3]; [43] | [6]; [41] | [7]; [42] | [10] | [16] | [19]; KY4298, pH 7.2, read-out: Minimum Inhibitory Concentration | [24]
0.4 µg/mL: [4] | [5] | [22] | [25] | [30] | [32]
0.78 µg/mL: [15] | [18] | [20]
6.25 µg/mL: [2]
25 µg/mL: [12] | [13] | [27]
1.56 µg/mL: [1]; [34] | [9] | [11]; [38] | [14] | [17] | [23] | [26]; [40] | [28] | [29] | [31] | [33]
12.5 µg/mL: [21]
